After the bases stand the sugars from the 5' end (letter, count) and the backbone: PS all phosphorothioate, else s phosphorothioate and o phosphodiester by linkage. Methylation of C is not given here. e = 2'-O-(2-methoxyethyl) (MOE); k = constrained ethyl (cEt); d = 2'-deoxy (DNA); m = 2'-O-methyl

72 sequences from the OligoGym collection can be followed below.

The data set deals with HSD17B13. As to conditions: ASO, HepaRG.

For ATCCCGTTCTTGCCCA (sugars k3 d10 k3, PS), the target mRNA inhibition (1 µM) came to 30%.

As for AACTAAACATGACAGC (sugars k3 d10 k3, PS), the target mRNA inhibition was determined as 8% (0.02 µM); 26% (0.078 µM); 40% (0.313 µM); 72% (1 µM); 65% (1.25 µM); 85% (5 µM).

Where the note is “1 µM”, CTGATGTCAGACCTCT (sugars k3 d10 k3, PS) gave a target mRNA inhibition of 35%.

For GGCTTAATTTTCGGGT (sugars k3 d10 k3, PS), the target mRNA inhibition (1 µM) came out at 17%.

“TCGGUCACCTTTCATA (sugars k3 d1 m1 d8 k3, PS)” displayed a target mRNA inhibition (1 µM) of 21%.

As to “AATCCCAACCAAACTT (sugars k3 d9 k3 e1, PS)”, the target mRNA inhibition (1 µM) was 13%.

The sequence CTCTTCATCCTTGGTG (sugars k3 d10 k3, PS) gave a target mRNA inhibition (1 µM) of 25%.

GCTTAATGTTCAGTTT (sugars k3 d10 k3, PS): the target mRNA inhibition (1 µM) is 50%.

Regarding CTGATTTAGTTGGTAG (sugars k3 d10 k3, PS), the target mRNA inhibition is, setting by setting: (0.02 µM) 0%; (0.078 µM) 0%; (0.313 µM) 41%; (1 µM) 78%; (1.25 µM) 70%; (5 µM) 88%.

Take “GTTCUTGTTGATATTC (sugars k3 d1 m1 d8 k3, PS)”: the target mRNA inhibition (1 µM) came out at 70%.

In the case of TAGAACTGTGTTGCTT (sugars k3 d10 k3, PS), the target mRNA inhibition reads like this: (0.02 µM) 14%; (0.078 µM) 27%; (0.313 µM) 57%; (1 µM) 78%; (1.25 µM) 78%; (5 µM) 90%.

Turning to AGCTAGATACTCAATT (sugars k3 d10 k3, PS), the target mRNA inhibition (1 µM) came to 2%.

As to AAATTATACTTTTCCG (sugars k3 d10 k3, PS), the target mRNA inhibition (0.02 µM) came out at 0%; the target mRNA inhibition (0.078 µM) stood at 38%; the target mRNA inhibition (0.313 µM) was found to be 66%; the target mRNA inhibition (1 µM) was 85%; the target mRNA inhibition (1.25 µM) was 88%; the target mRNA inhibition (5 µM) came out at 92%.

For the sequence “CTAAACATCTCTGGGA (sugars kkdddddddddkekek, PS)”, the target mRNA inhibition (1 µM) was 29%.

“ACATTAGCAAGCTAAG (sugars k3 d9 k3 e1, PS)” had a target mRNA inhibition (1 µM) of 41%.

“GATCTCTTAGCTGTGC (sugars k3 d9 k3 e1, PS)”: the target mRNA inhibition (1 µM) came to 70%.

Where the note is “1 µM”, TATGACAACTGGAGGT (sugars k3 d10 k3, PS) registered a target mRNA inhibition of 14%.

ACAATTTTTCCAATCC (sugars k3 d10 k3, PS): the target mRNA inhibition is, setting by setting: (0.02 µM) 9%; (0.078 µM) 37%; (0.313 µM) 62%; (1 µM) 86%; (1.25 µM) 76%; (5 µM) 93%.

On to TTTGTTAGAGTGCTTA (sugars k3 d10 k3, PS), for which the target mRNA inhibition is, setting by setting: (0.02 µM) 12%; (0.078 µM) 30%; (0.313 µM) 56%; (1 µM) 80%; (1.25 µM) 86%; (5 µM) 89%.

For the sequence GGATAAGAAGAGAGCT (sugars k3 d10 k3, PS), the target mRNA inhibition (1 µM) came to 46%.

In the case of TTGAAGACAATACAGG (sugars k3 d10 k3, PS), the target mRNA inhibition (1 µM) is 63%.

Regarding GCTAAGTATACTTTCT (sugars k3 d10 k3, PS), the target mRNA inhibition (1 µM) amounted to 37%.

As to TCATTTAGCAGCTTGG (sugars k3 d10 k3, PS), the target mRNA inhibition runs as follows: (0.02 µM) 12%; (0.078 µM) 31%; (0.313 µM) 43%; (1 µM) 79%; (1.25 µM) 87%; (5 µM) 84%.

As to CCCTTAACAAACCTCC (sugars k3 d10 k3, PS), the target mRNA inhibition (1 µM) is 43%.

In turn, “GTTTTGGGCTAATGAA (sugars kkdddddddddkekek, PS)” displayed a target mRNA inhibition (1 µM) of 42%.

Where the note is “1 µM”, “TAGAGTCGGTCACCTT (sugars k3 d9 k3 e1, PS)” returned a target mRNA inhibition of 59%.

Consider CCATCTAGAATTAAGG (sugars k3 d10 k3, PS), for which the target mRNA inhibition (1 µM) stood at 0%.

Sequence TGCAGATTATTATGTG (sugars k3 d10 k3, PS) yielded a target mRNA inhibition (1 µM) of 38%.

In the case of “TGTTGATATTCTGTGG (sugars k3 d9 k3 e1, PS)”, the target mRNA inhibition (1 µM) worked out at 64%.

Turning to GCAGATTATTATGTGA (sugars k3 d10 k3, PS), the target mRNA inhibition (1 µM) was 59%.

On to TAAGTGTAAGAGACAT (sugars k3 d10 k3, PS), for which, under “1 µM”, the target mRNA inhibition is 63%.

CAAAAGACTTTGAGAC (sugars k3 d10 k3, PS) displayed a target mRNA inhibition (1 µM) of 22%.

On to GGTTCAGTCCTTGTGT (sugars k3 d10 k3, PS), for which the target mRNA inhibition (1 µM) was found to be 57%.

Regarding AGCCTTAGAGTGAATC (sugars k3 d10 k3, PS), the target mRNA inhibition runs as follows: (0.02 µM) 35%; (0.078 µM) 54%; (0.313 µM) 84%; (1 µM) 74%; (1.25 µM) 94%; (5 µM) 89%.

Turning to AGTCCTTGTGTAGTCC (sugars k3 d10 k3, PS), the target mRNA inhibition (1 µM) is 64%.

For the setting “1 µM”, CAGAAGGATTTCTAGG (sugars k3 d10 k3, PS) came in with a target mRNA inhibition of 43%.

ATACGATGGAACAAAA (sugars k3 d10 k3, PS): the target mRNA inhibition (1 µM) is 27%.

In turn, AACTGAAACGATCCTC (sugars k3 d10 k3, PS) showed a target mRNA inhibition (1 µM) of 52%.

“GTGGCATGGCTACAGA (sugars k3 d1 m1 d8 k3, PS)” came in with a target mRNA inhibition (1 µM) of 49%.

TATAGGTAGCTAATGT (sugars k3 d10 k3, PS) registered a target mRNA inhibition (1 µM) of 31%.

Where the note is “1 µM”, “AGGTTGAGATAAAGCT (sugars kkdddddddddkekek, PS)” yielded a target mRNA inhibition of 60%.

Consider AGGTTGAGATAAAGCT (sugars k3 d10 k3, PS), for which the target mRNA inhibition is 20% (0.02 µM); 27% (0.078 µM); 40% (0.313 µM); 74% (1 µM); 69% (1.25 µM); 86% (5 µM).

As for “AAGAUACCCAGGTTGC (sugars k3 d1 m1 d8 k3, PS)”, the target mRNA inhibition (1 µM) amounted to 37%.

Under “1 µM”, TGTCCCAGCATTATTC (sugars k3 d10 k3, PS) displayed a target mRNA inhibition of 31%.

In the case of AAGGAGCTAGATACTC (sugars k3 d10 k3, PS), the target mRNA inhibition (1 µM) came to 19%.

For the setting “1 µM”, TCATTTTTAATACGAC (sugars k3 d10 k3, PS) displayed a target mRNA inhibition of 48%.

On to TAACCAATTATATGAG (sugars k3 d10 k3, PS), for which, under “1 µM”, the target mRNA inhibition was 0%.

For the sequence CCTTATACTGAAGGCT (sugars k3 d10 k3, PS), the target mRNA inhibition (1 µM) was 41%.

Sequence TACACTAATATTGAGG (sugars k3 d10 k3, PS) returned a target mRNA inhibition (1 µM) of 30%.

For the sequence CCTTGAATAGCAAGCC (sugars k3 d10 k3, PS), the target mRNA inhibition (1 µM) amounted to 61%.

In the case of GTTGAGTAGTGTAAGC (sugars k3 d10 k3, PS), the target mRNA inhibition (1 µM) was determined as 53%.

TCACCACGATTGTTAC (sugars k3 d10 k3, PS) gave a target mRNA inhibition (1 µM) of 34%.

In the case of GTCTAAACATCTCTGG (sugars k3 d10 k3, PS), for the setting “1 µM”, the target mRNA inhibition came out at 58%.

Take ATGTTGACCTCAAATG (sugars k3 d10 k3, PS): the target mRNA inhibition (1 µM) was 0%.

Turning to TTAGCAAGCTAAGAGA (sugars k3 d10 k3, PS), for the setting “1 µM”, the target mRNA inhibition was 42%.

On to CTCTTATCTGATATGA (sugars k3 d10 k3, PS), for which the target mRNA inhibition (1 µM) was determined as 7%.

“AGTACAGTTCCTTTTC (sugars k3 d1 m1 d8 k3, PS)” showed a target mRNA inhibition (1 µM) of 56%.

In turn, TACACTGACAACCCTT (sugars k3 d10 k3, PS) showed a target mRNA inhibition (1 µM) of 56%.

Under “1 µM”, TTTCACCTCAGGTGAC (sugars k3 d10 k3, PS) yielded a target mRNA inhibition of 52%.

In turn, GAGGTAAGGAATCCCT (sugars k3 d10 k3, PS) returned a target mRNA inhibition (1 µM) of 27%.

Turning to GAGTCGGTCACCTTTC (sugars k3 d10 k3, PS), the target mRNA inhibition amounted to 0% (0.02 µM); 30% (0.078 µM); 55% (0.313 µM); 82% (1 µM); 82% (1.25 µM); 82% (5 µM).

The sequence “AGGCTGTAAGAGTCAG (sugars k3 d9 k3 e1, PS)” gave a target mRNA inhibition (1 µM) of 49%.

With CTCAAATAGCCTTTTG (sugars k3 d10 k3, PS), the target mRNA inhibition (1 µM) was found to be 64%.

In the case of “GTTTTGGGCTAATGAA (sugars k3 d9 k3 e1, PS)”, for the setting “1 µM”, the target mRNA inhibition worked out at 47%.

The sequence TTAAGTACTGTGAGAC (sugars k3 d10 k3, PS) came in with a target mRNA inhibition (1 µM) of 35%.

Sequence CTTACGACTTCATCTG (sugars k3 d10 k3, PS) came in with a target mRNA inhibition (1 µM) of 38%.

Sequence CATAAGTAGTCTGCCT (sugars k3 d10 k3, PS) returned a target mRNA inhibition (1 µM) of 31%.

ATGCAAGATTTACTTC (sugars k3 d10 k3, PS) registered a target mRNA inhibition (1 µM) of 38%.

Turning to GTTAGCAAAACACTTG (sugars k3 d10 k3, PS), the target mRNA inhibition (0.02 µM) amounted to 1%; the target mRNA inhibition (0.078 µM) worked out at 15%; the target mRNA inhibition (0.313 µM) worked out at 44%; the target mRNA inhibition (1 µM) was found to be 71%; the target mRNA inhibition (1.25 µM) is 68%; the target mRNA inhibition (5 µM) came to 81%.

Sequence AGTCTACCACATACGC (sugars k3 d10 k3, PS) yielded a target mRNA inhibition (1 µM) of 65%.

With GATGTGGCCATGATTT (sugars k3 d10 k3, PS), under “1 µM”, the target mRNA inhibition was found to be 9%.

For the setting “1 µM”, ACCAATCCTCAGCTTT (sugars k3 d10 k3, PS) had a target mRNA inhibition of 11%.
